Values quoted from earlier work as cited in paper PMC5974752, “Bax/Tubulin/Epithelial-Mesenchymal Pathways Determine the Efficacy of Silybin Analog HM015k in Colorectal Cancer Cell Growth and Metastasis” (Frontiers in Pharmacology, 2018).

Tests used:
[1] = tested on: SW480 cells with a mutant APC gene; design: method as in Kaur et al., 2010; conditions: 50–200 μM; ref Kaur et al., 2010; cited from earlier work
[2] = tested on: ARCaP(M) cells; design: method as in Wu et al., 2009; conditions: 100 and 200 μM; ref Wu et al., 2009; cited from earlier work
[3] = tested on: PC3 and PC3MM2 cells; design: method as in Deep et al., 2011; conditions: 90 μM; ref Deep et al., 2011; cited from earlier work
[4] = tested on: transgenic mice with prostate adenocarcinomas; design: method as in Singh et al., 2008; conditions: 0.5 and 1% (w/w); ref Singh et al., 2008; cited from earlier work
[5] = tested on: CRC lines HCT116 and HT29; design: method as in Agarwal et al., 2003; conditions: ref Agarwal et al., 2003, cited from earlier work
[6] = tested on: EMT—driven resistance; design: method as in Cufí et al., 2013; conditions: 100 mg/kg; ref Cufí et al., 2013; cited from earlier work
[7] = tested on: xenograft model in mice using SW480 cells; design: method as in Kaur et al., 2010; conditions: i.p. 100 or 200 mg/kg; ref Kaur et al., 2010; cited from earlier work
[8] = design: method as in Dixit et al., 2007; Zhu et al., 2013; Amawi et al., 2017b; conditions: ref Dixit et al., 2007; Zhu et al., 2013; Amawi et al., 2017b; cited from earlier work
[9] = tested on: Wnt/β-catenin signaling in PC-3, DU-145, MDAMB-231 and T-47D cells; design: method as in Lu W. et al., 2012; conditions: 100–200 μM; ref Lu W. et al., 2012; cited from earlier work
[10] = tested on: PC3 and PC3MM2 cells; design: method as in Deep et al., 2011; conditions: 30 and 90 μM; ref Deep et al., 2011; cited from earlier work

Compound: COc1cc(C2Oc3cc([C@H]4Oc5cc(O)cc(O)c5C(=O)[C@@H]4O)ccc3OC2CO)ccc1O (some centres unmarked) [silybin]
- nuclear β-catenin, c-Myc expression and apoptosis [1]: significantly inhibited the expression of nuclear β-catenin, c-Myc and induced apoptosis
- invasiveness [2]: inhibits the invasiveness
- E-cadherin and nuclear β-catenin levels [3]: significant upregulation in E-cadherin and downregulation in nuclear β-catenin levels
- E-cadherin, vimentin and MMP-2 expression [4]: significantly upregulate E-cadherin and decrease the expression of the EMT markers, vimentin and MMP-2
- concentration that inhibits proliferation ([5]; HCT116 and HT29): 50 to 200 µM
- cell cycle arrest and apoptosis [5]: induces both G1 and G2 cell cycle arrest and induces apoptosis
- EMT-driven resistance [6]: significantly decreased
- effects in SW480 xenograft [7]: produced similar effects
- bioavailability [8]: poor bioavailability
- Wnt/β-catenin signaling [9]: significantly decreased
- migratory and invasive capacities [10]: inhibits the migratory and invasive capacities
